{"source": "patent EP0612472A1", "about": "“Herbicidal combinations comprising triazole derivatives (III)” (MONSANTO EUROPE S.A., priority 1993, dated 1994)", "tested_on": "Galium aparine", "assay": "field experiment, tank mix, Belgium", "assay_type": "in vivo", "description": "A field experiment has been carried out during winter time (November 1990) in Belgium.\nApplication was made at 250 l/ha using standard spraying equipment (Backpack sprayer; Nozzles XR 11003). Randomised block design with 3 replicates was used. Unit plot size was 2 X 6m². The soil surface was moist. Total ground cover: 20% crop, 10% weeds and 70% bare ground.\nThe plant species tested and corresponding true leave stage are:\nThe herbicides tested are the herbicide A as described in Example 1 in tank mix with another phytohormone type of herbicide, that is mecoprop. 0.2% surfactant (Tween® 20) has been added to the tank.\nThe results in table 2 hereafter are presented as average values of three replications."}
{"smiles": "Cc1cc(Cl)ccc1OC(C)C(=O)O", "note": "(centres unmarked) [mecoprop]", "values": [{"measurement": "control, GALAP 120 DAT", "setting": "RATE 1000 g a.i/ha", "value": 73.3, "unit": "%"}, {"measurement": "control, GALAP 120 DAT", "setting": "RATE 1200 g a.i/ha", "value": 66.7, "unit": "%"}]}
